Where “and” joins values, the source holds several entries; their conditions need not be identical. Equal values may be shown once. Numbers after ± are expanded uncertainties.
Experiment: molar heat capacity at saturation pressure
Settings: Crystal, Vacuum adiabatic calorimetry

In the case of `CCCCn1cc[n+](C)c1.O=S(=O)([O-])C(F)(F)F` [1-butyl-3-methylimidazolium trifluoromethanesulfonate], the molar heat capacity (5.202 K) is reported as 1.664 ± 0.032 J/K/mol, the molar heat capacity (5.437 K) is reported as 1.901 ± 0.034 J/K/mol and the molar heat capacity (5.715 K) is reported as 2.221 ± 0.038 J/K/mol. The molar heat capacity (5.999 K) was 2.57 ± 0.041 J/K/mol, the molar heat capacity (6.317 K) was 2.999 ± 0.046 J/K/mol and the molar heat capacity (6.671 K) was 3.523 ± 0.05 J/K/mol. For the same compound, the molar heat capacity (7.032 K) was 4.097 ± 0.056 J/K/mol, the molar heat capacity (7.395 K) was 4.732 ± 0.061 J/K/mol and the molar heat capacity (7.763 K) was 5.393 ± 0.066 J/K/mol. It also gave a molar heat capacity (8.135 K) of 6.123 ± 0.072 J/K/mol, a molar heat capacity (8.512 K) of 6.893 ± 0.078 J/K/mol and a molar heat capacity (8.894 K) of 7.698 ± 0.084 J/K/mol. The molar heat capacity (9.277 K) was 8.558 ± 0.09 J/K/mol, the molar heat capacity (9.664 K) was 9.444 ± 0.096 J/K/mol and the molar heat capacity (10.05 K) was 10.36 ± 0.1 J/K/mol. It also gave a molar heat capacity (10.55 K) of 11.59 ± 0.11 J/K/mol, a molar heat capacity (11.16 K) of 13.11 ± 0.12 J/K/mol and a molar heat capacity (11.77 K) of 14.7 ± 0.13 J/K/mol. For the same compound, the molar heat capacity (12.38 K) was 16.35 ± 0.14 J/K/mol, the molar heat capacity (13 K) was 18.04 ± 0.15 J/K/mol and the molar heat capacity (13.62 K) was 19.77 ± 0.16 J/K/mol. For the same compound, the molar heat capacity (14.25 K) was 21.58 ± 0.17 J/K/mol, the molar heat capacity (14.88 K) was 23.41 ± 0.18 J/K/mol and the molar heat capacity (15.62 K) was 25.59 ± 0.19 J/K/mol. For the same compound, the molar heat capacity (16.48 K) was 28.21 ± 0.2 J/K/mol, the molar heat capacity (17.34 K) was 30.75 ± 0.21 J/K/mol and the molar heat capacity (18.21 K) was 33.27 ± 0.22 J/K/mol. For the same compound, the molar heat capacity (19.07 K) was 35.79 ± 0.23 J/K/mol, the molar heat capacity (19.94 K) was 38.35 ± 0.23 J/K/mol and the molar heat capacity (21.15 K) was 41.92 ± 0.24 J/K/mol. For the same compound, the molar heat capacity (22.72 K) was 46.46 ± 0.25 J/K/mol, the molar heat capacity (24.29 K) was 51.02 ± 0.25 J/K/mol and the molar heat capacity (25.87 K) was 55.46 ± 0.26 J/K/mol. For the same compound, the molar heat capacity (27.45 K) was 59.71 ± 0.25 J/K/mol, the molar heat capacity (28.86 K) was 63.39 ± 0.25 J/K/mol and the molar heat capacity (30.34 K) was 67.25 ± 0.18 J/K/mol. It also gave a molar heat capacity (32.09 K) of 71.61 ± 0.19 J/K/mol, a molar heat capacity (34 K) of 76.13 ± 0.2 J/K/mol and a molar heat capacity (35.92 K) of 80.4 ± 0.21 J/K/mol. For the same compound, the molar heat capacity (37.84 K) was 84.48 ± 0.21 J/K/mol, the molar heat capacity (39.76 K) was 88.4 ± 0.22 J/K/mol and the molar heat capacity (41.78 K) was 92.42 ± 0.23 J/K/mol. It also gave a molar heat capacity (43.9 K) of 96.53 ± 0.24 J/K/mol, a molar heat capacity (46.01 K) of 100.5 ± 0.2 J/K/mol and a molar heat capacity (48.13 K) of 104.3 ± 0.3 J/K/mol. It also gave a molar heat capacity (50.25 K) of 108 ± 0.3 J/K/mol, a molar heat capacity (52.38 K) of 111.5 ± 0.3 J/K/mol and a molar heat capacity (54.5 K) of 114.9 ± 0.3 J/K/mol. For the same compound, the molar heat capacity (56.63 K) was 118.1 ± 0.3 J/K/mol, the molar heat capacity (58.75 K) was 121.2 ± 0.3 J/K/mol and the molar heat capacity (60.89 K) was 124.2 ± 0.3 J/K/mol. For the same compound, the molar heat capacity (63.03 K) was 127.2 ± 0.3 J/K/mol, the molar heat capacity (65.17 K) was 130.1 ± 0.3 J/K/mol and the molar heat capacity (67.3 K) was 133 ± 0.3 J/K/mol. It also gave a molar heat capacity (69.44 K) of 135.8 ± 0.3 J/K/mol, a molar heat capacity (71.69 K) of 138.7 ± 0.3 J/K/mol and a molar heat capacity (74.03 K) of 141.6 ± 0.3 J/K/mol. The molar heat capacity (76.39 K) was 144.5 ± 0.3 J/K/mol, the molar heat capacity (78.69 K) was 147.6 ± 0.3 J/K/mol and 147.7 ± 0.3 J/K/mol and the molar heat capacity (78.74 K) was 147.4 ± 0.3 J/K/mol. For the same compound, the molar heat capacity (80.59 K) was 149.7 ± 0.3 J/K/mol, the molar heat capacity (80.61 K) was 149.7 ± 0.3 J/K/mol and the molar heat capacity (81.1 K) was 150.1 ± 0.3 J/K/mol. It also gave a molar heat capacity (82.36 K) of 151.6 ± 0.3 J/K/mol, a molar heat capacity (82.4 K) of 151.6 ± 0.3 J/K/mol and a molar heat capacity (83.47 K) of 152.9 ± 0.4 J/K/mol. It also gave a molar heat capacity (84.13 K) of 153.6 ± 0.4 J/K/mol, a molar heat capacity (84.19 K) of 153.7 ± 0.4 J/K/mol and a molar heat capacity (85.92 K) of 155.7 ± 0.4 J/K/mol. It also gave a molar heat capacity (86 K) of 155.7 ± 0.4 J/K/mol, a molar heat capacity (87.73 K) of 157.6 ± 0.4 J/K/mol and a molar heat capacity (87.81 K) of 157.6 ± 0.4 J/K/mol. For the same compound, the molar heat capacity (89.54 K) was 159.5 ± 0.4 J/K/mol, the molar heat capacity (89.64 K) was 159.6 ± 0.4 J/K/mol and the molar heat capacity (91.35 K) was 161.5 ± 0.4 J/K/mol. For the same compound, the molar heat capacity (91.48 K) was 161.6 ± 0.4 J/K/mol, the molar heat capacity (93.18 K) was 163.4 ± 0.4 J/K/mol and the molar heat capacity (93.33 K) was 163.6 ± 0.4 J/K/mol. For the same compound, the molar heat capacity (95.02 K) was 165.5 ± 0.4 J/K/mol, the molar heat capacity (95.19 K) was 165.6 ± 0.4 J/K/mol and the molar heat capacity (96.87 K) was 167.3 ± 0.4 J/K/mol. It also gave a molar heat capacity (97.05 K) of 167.5 ± 0.4 J/K/mol, a molar heat capacity (98.72 K) of 169.2 ± 0.4 J/K/mol and a molar heat capacity (98.92 K) of 169.4 ± 0.4 J/K/mol. It also gave a molar heat capacity (100.59 K) of 171.1 ± 0.4 J/K/mol, a molar heat capacity (100.8 K) of 171.4 ± 0.4 J/K/mol and a molar heat capacity (102.64 K) of 173.1 ± 0.4 J/K/mol. It also gave a molar heat capacity (102.7 K) of 173.3 ± 0.4 J/K/mol, a molar heat capacity (104.6 K) of 175.1 ± 0.4 J/K/mol and a molar heat capacity (104.89 K) of 175.5 ± 0.4 J/K/mol. For the same compound, the molar heat capacity (106.5 K) was 177 ± 0.4 J/K/mol, the molar heat capacity (107.15 K) was 177.7 ± 0.4 J/K/mol and the molar heat capacity (108.41 K) was 178.9 ± 0.4 J/K/mol. The molar heat capacity (109.42 K) was 179.9 ± 0.4 J/K/mol, the molar heat capacity (110.33 K) was 180.8 ± 0.4 J/K/mol and the molar heat capacity (111.71 K) was 182.1 ± 0.4 J/K/mol. It also gave a molar heat capacity (112.25 K) of 182.6 ± 0.4 J/K/mol, a molar heat capacity (114.01 K) of 184.4 ± 0.4 J/K/mol and a molar heat capacity (114.17 K) of 184.5 ± 0.4 J/K/mol. For the same compound, the molar heat capacity (116.1 K) was 186.5 ± 0.4 J/K/mol, the molar heat capacity (116.31 K) was 186.8 ± 0.4 J/K/mol and the molar heat capacity (118.04 K) was 189.9 ± 0.4 J/K/mol. The molar heat capacity (118.61 K) was 190.7 ± 0.4 J/K/mol, the molar heat capacity (119.97 K) was 192.6 ± 0.4 J/K/mol and the molar heat capacity (120.92 K) was 192.7 ± 0.4 J/K/mol. It also gave a molar heat capacity (121.91 K) of 193.4 ± 0.4 J/K/mol, a molar heat capacity (123.24 K) of 193.9 ± 0.4 J/K/mol and a molar heat capacity (123.85 K) of 194.3 ± 0.4 J/K/mol. For the same compound, the molar heat capacity (125.56 K) was 195.3 ± 0.4 J/K/mol, the molar heat capacity (125.8 K) was 195.5 ± 0.4 J/K/mol and the molar heat capacity (127.76 K) was 196.9 ± 0.4 J/K/mol. It also gave a molar heat capacity (127.9 K) of 197 ± 0.4 J/K/mol, a molar heat capacity (129.72 K) of 198.4 ± 0.4 J/K/mol and a molar heat capacity (130.24 K) of 198.8 ± 0.4 J/K/mol. For the same compound, the molar heat capacity (131.68 K) was 200 ± 0.4 J/K/mol, the molar heat capacity (132.58 K) was 200.7 ± 0.4 J/K/mol and the molar heat capacity (133.65 K) was 201.6 ± 0.4 J/K/mol. It also gave a molar heat capacity (134.93 K) of 202.7 ± 0.4 J/K/mol, a molar heat capacity (135.63 K) of 203.2 ± 0.4 J/K/mol and a molar heat capacity (137.28 K) of 204.7 ± 0.4 J/K/mol. For the same compound, the molar heat capacity (137.6 K) was 204.9 ± 0.4 J/K/mol, the molar heat capacity (139.58 K) was 206.5 ± 0.4 J/K/mol and the molar heat capacity (139.64 K) was 206.6 ± 0.4 J/K/mol. It also gave a molar heat capacity (141.56 K) of 208.3 ± 0.4 J/K/mol, a molar heat capacity (142 K) of 208.7 ± 0.4 J/K/mol and a molar heat capacity (143.55 K) of 210.1 ± 0.4 J/K/mol. The molar heat capacity (144.36 K) was 210.9 ± 0.4 J/K/mol, the molar heat capacity (145.53 K) was 211.9 ± 0.4 J/K/mol and the molar heat capacity (146.73 K) was 213 ± 0.4 J/K/mol. For the same compound, the molar heat capacity (147.51 K) was 213.7 ± 0.4 J/K/mol, the molar heat capacity (149.09 K) was 215.2 ± 0.4 J/K/mol and the molar heat capacity (149.5 K) was 215.5 ± 0.4 J/K/mol. For the same compound, the molar heat capacity (151.45 K) was 217.4 ± 0.4 J/K/mol, the molar heat capacity (151.48 K) was 217.4 ± 0.4 J/K/mol and the molar heat capacity (153.46 K) was 219.3 ± 0.4 J/K/mol. The molar heat capacity (153.82 K) was 219.6 ± 0.4 J/K/mol, the molar heat capacity (155.44 K) was 221.2 ± 0.4 J/K/mol and the molar heat capacity (156.18 K) was 221.9 ± 0.4 J/K/mol. The molar heat capacity (157.42 K) was 223.1 ± 0.4 J/K/mol, the molar heat capacity (158.55 K) was 224.2 ± 0.4 J/K/mol and the molar heat capacity (159.41 K) was 225.1 ± 0.4 J/K/mol. The molar heat capacity (160.91 K) was 226.5 ± 0.4 J/K/mol, the molar heat capacity (161.39 K) was 226.9 ± 0.4 J/K/mol and the molar heat capacity (163.28 K) was 228.8 ± 0.4 J/K/mol. For the same compound, the molar heat capacity (163.37 K) was 228.9 ± 0.4 J/K/mol, the molar heat capacity (165.35 K) was 230.9 ± 0.4 J/K/mol and the molar heat capacity (165.64 K) was 231.1 ± 0.4 J/K/mol. For the same compound, the molar heat capacity (167.32 K) was 232.8 ± 0.4 J/K/mol, the molar heat capacity (168 K) was 233.4 ± 0.4 J/K/mol and the molar heat capacity (169.3 K) was 234.8 ± 0.4 J/K/mol.
